The values that follow come from EP0309789A1, “4-Oxo-3-quinolinecarboxylic acids useful as antibacterial agents and preparation thereof” (STERLING WINTHROP INC., priority 1987, dated 1989).

In brackets after ≈: the same amount, converted by molar mass. Like-named read-outs stand apart in the source and are kept apart here.

The test system of data set [1] is Bacteroides fragilis. Put plainly: In vitro antimicrobial activity, microplate dilution procedure (MIC), anaerobic. It is filed as cell-based. As for the experimental part: (§1) The in vitro antimicrobial activity of the compounds of the invention was determined by a microplate dilution procedure. […] Resulting suspensions were diluted 1/10 in the appropriate broth or used undiluted for the inoculum. […] The compounds were then serially diluted two-fold in DMSO to give a working stock concentration range plate. The last row of wells was left compound-free receiving only DMSO to serve as a growth control. Five mcl from each well of the working stock plate was transferred to corresponding wells of a separate plate containing 95 mcl/well of the appropriate broth. All dilutions were made with either an automated dilutor or manually. […] Plates were incubated as described above and read for visible growth. The minimal inhibitory concentration (MIC: expressed in mcg/ml) of each compound tested against each test microorganism was determined as the lowest concentration of compound which prevents visible microbial growth.

The subject of data set [2] is Staph. aureus. Kind of data set: In vivo antibacterial activity in infected mice (protective dose). As to conditions: for Staph. aureus (PD₅₀) po / Staph. aureus (PD₅₀) sc: Mouse, one-half hour postinfection, deaths recorded for seven days; for Staph. aureus (PD₅₀) sc: subcutaneous; for activity relative to the prior art compounds: Staph. aureus, in vivo mouse, from Table II. As to the method: (§2) The in vivo antibacterial activity of the compounds of the invention was determined in female mice, 18-20 grams each. Aqueous solutions of the compounds to be tested were prepared by dissolving the free acid form in dilute sodium hydroxide and diluting the solution with distilled water to the desired concentration. Cultures of E. coli were grown in brain heart infusion broth, and the mice were inoculated intraperitoneally with 0.5 ml of the bacterial test inoculum suspended in saline. Cultures of Staph. aureus were thawed from frozen pooled stocks and mixed with 5% mucin. A 0.5 ml preparation was used to infect mice by i.p. inoculation. The mice were medicated subcutaneously (sc) or orally (po) with 0.5 ml of the test compound solution one-half hour postinfection. Deaths were recorded daily for seven days. Fifty percent protective dose values (PD₅₀) were calculated using probit analysis.

Data set [3] deals with E. coli. The data set is described as above. As to conditions: Mouse, one-half hour postinfection, deaths recorded for seven days; for E. coli (PD₅₀) sc: subcutaneous. As for the experimental part:
as §2

The subject of data set [4] is Pseudomonas aeruginosa. Put plainly: In vitro antimicrobial activity, microplate dilution procedure (MIC). It is filed as cell-based. Particulars: read-out: PA MIC. As for the experimental part: as §1
The subject of data set [5] is Staphylococcus aureus. Described as above. It is filed as cell-based. As to conditions: for MIC: Staphylococcus aureus; for activity relative to compound R / activity relative to compounds P and Q: from Table I. As to the method: as §1
Data set [6] concerns Escherichia coli. The description is as above. It is filed as cell-based. As to the method:
as §1

The subject of data set [7] is Streptococcus faecalis. The description is as above. It is filed as cell-based. Particulars: Enterococcus faecalis. As for the experimental part: as §1
The test system of data set [8] is Streptococcus pneumoniae. The data set is described as above. It is filed as cell-based. As to the method:
as §1

The test system of data set [9] is Micrococcus luteus. The description is as above. It is filed as cell-based. As for the experimental part: as §1
Data set [10] in a line: Serum levels in monkeys after oral dosing. It is filed as in vivo. Particulars: 25 mg/kg oral dosing; for half-life: monkey. As to the method:
In monkeys, compounds A and C gave high and prolonged serum levels after 25 mg/kg oral dosing.

[11] abbreviates: Streptococcus faecalis, read-out: SF MIC.
Where [12] appears, read: Strep. pneumoniae, read-out: MIC.

For `CCn1cc(C(=O)O)c(=O)c2ccc(-c3cc(C)nc(C)c3)cc21` [P, 7-(2,6-Dimethyl-4-pyridinyl)-1-ethyl-1,4-dihydro-4-oxo-3-quinolinecarboxylic acid, reference compound], the MIC (usually the lowest concentration found to suppress growth) came out at 16 µg/mL (≈ 49.6 µM) in data set [1] (anaerobic, read-out: BF MIC); 32 µg/mL (≈ 99.3 µM) in [4]; 0.25 µg/mL (≈ 0.776 µM) in [5] (read-out: SA MIC); 0.25 µg/mL (≈ 0.776 µM) in data set [6] (read-out: EC MIC); 1 µg/mL (≈ 3.1 µM) in [7] (setting [11]); 2 µg/mL (≈ 6.2 µM) in [8] (read-out: SP MIC). Also, the MIC in [9] (read-out: ML MIC) was 8 µg/mL (≈ 24.8 µM). In [2], the “Staph. aureus (PD₅₀) po” value is on record as 3.8 mg/kg. Besides, the “Staph. aureus (PD₅₀) sc” value in data set [2] worked out at 2.37 mg/kg. The “E. coli (PD₅₀) po” value in [3] worked out at 17.9 mg/kg. For the same molecule, in [3], the “E. coli (PD₅₀) sc” value was 13.5 mg/kg.

In the case of `Cc1cc(-c2cc3c(cc2F)c(=O)c(C(=O)O)cn3C2CC2)cc(C)n1` [Compound A, 1-Cyclopropyl-7-(2,6-dimethyl-4-pyridinyl)-6-fluoro-1,4-dihydro-4-oxo-3-quinolinecarboxylic acid], in [10], the maximum concentration came to 13 µg/mL, the “time of maximum concentration” value worked out at 7 h and the half-life (commonly the time in which the quantity being followed falls by half) was 13 h. The MIC in data set [1] (anaerobic, read-out: BF MIC) stood at 0.5 µg/mL (≈ 1.42 µM). In data set [2], the “Staph. aureus (PD₅₀) po” value amounted to 0.20 mg/kg, the “Staph. aureus (PD₅₀) sc” value is given as 0.08 mg/kg and the “activity relative to the prior art compounds” value is recorded as 9-30 times. Besides, in [3], the “E. coli (PD₅₀) po” value was determined as 3.8 mg/kg and the “E. coli (PD₅₀) sc” value is given as 3.1 mg/kg. Further, the MIC in data set [4] came out at 2 µg/mL (≈ 5.68 µM). In addition, in data set [5] (Staph. aureus), the “activity relative to compound R” value is given as “four times as active”; the “activity relative to compounds P and Q” value is “thirty times as active”. For the same molecule, the MIC in [5] (read-out: SA MIC) worked out at 0.008 µg/mL (≈ 0.0227 µM). The MIC in data set [6] (read-out: EC MIC) was found to be 0.03 µg/mL (≈ 0.0851 µM). Moreover, the MIC in data set [7] (setting [11]) came to 0.06 µg/mL (≈ 0.17 µM). Moreover, the MIC in [8] (read-out: SP MIC) worked out at 0.03 µg/mL (≈ 0.0851 µM). Also, the MIC in data set [9] (read-out: ML MIC) was 0.5 µg/mL (≈ 1.42 µM).

Turning to `Cc1cc(-c2c(F)c(Sc3ccccc3)c3c(=O)c(C(=O)O)cn(C4CC4)c3c2F)cc(C)n1` [Example 6(c), 1-cyclopropyl-7-(2,6-dimethyl-4-pyridinyl)-6,8-difluoro-5-(phenylthio)-1,4-dihydro-4-oxo-3-quinolinecarboxylic acid], the MIC in data set [1] (B. fragilis, read-out: MIC) came out at 16 µg/mL (≈ 33.4 µM); in data set [5] (Staph. aureus, read-out: MIC), 1 µg/mL (≈ 2.09 µM); in data set [7] (Strep. faecalis, read-out: MIC) it was 16 µg/mL (≈ 33.4 µM); in [8] (setting [12]), 2 µg/mL (≈ 4.18 µM); in data set [9] (M. luteus, read-out: MIC), 16 µg/mL (≈ 33.4 µM).

For `Cc1cc(-c2c(F)cc3c(=O)c(C(=O)O)cn(C4CC4)c3c2F)cc(C)n1` [C, 1-Cyclopropyl-6,8-difluoro-7-(2,6-dimethyl-4-pyridinyl)-1,4-dihydro-4-oxo-3-quinolinecarboxylic acid], in data set [10], the maximum concentration came to 34 µg/mL, the “time of maximum concentration” value turned out to be 5.5 h and the half-life is 20 h. In data set [1] (anaerobic, read-out: BF MIC), the MIC came to 0.125 µg/mL (≈ 0.338 µM). In addition, in [2], the “Staph. aureus (PD₅₀) po” value turned out to be 0.09 mg/kg, the “Staph. aureus (PD₅₀) sc” value came to 0.06 mg/kg and the “activity relative to the prior art compounds” value is 9-30 times. For the same molecule, in data set [3], the “E. coli (PD₅₀) po” value is given as 5.7 mg/kg and the “E. coli (PD₅₀) sc” value is on record as 6.1 mg/kg. Besides, the MIC in [4] was determined as 4 µg/mL (≈ 10.8 µM). For the same molecule, in data set [5] (Staph. aureus), the “activity relative to compound R” value was “four times as active”; the “activity relative to compounds P and Q” value was “thirty times as active”. Further, the MIC in [5] (read-out: SA MIC) amounted to 0.008 µg/mL (≈ 0.0216 µM). Also, the MIC in [6] (read-out: EC MIC) is 0.06 µg/mL (≈ 0.162 µM). The MIC in data set [7] (setting [11]) is 0.06 µg/mL (≈ 0.162 µM). Moreover, in [8] (read-out: SP MIC), the MIC turned out to be 0.016 µg/mL (≈ 0.0432 µM). In data set [9] (read-out: ML MIC), the MIC came to 0.25 µg/mL (≈ 0.675 µM).

For the molecule `CCn1cc(C(=O)O)c(=O)c2cc(F)c(-c3cc(C)nc(C)c3)cc21` [R, 7-(2,6-Dimethyl-4-pyridinyl)-1-ethyl-6-fluoro-1,4-dihydro-4-oxo-3-quinolinecarboxylic acid, reference compound], the MIC in [1] (anaerobic, read-out: BF MIC) amounted to 2 µg/mL (≈ 5.88 µM); in data set [4] it was 4 µg/mL (≈ 11.8 µM); in data set [5] (read-out: SA MIC) it was 0.03 µg/mL (≈ 0.0881 µM); in data set [6] (read-out: EC MIC), 0.06 µg/mL (≈ 0.176 µM); in [7] (setting [11]), 0.25 µg/mL (≈ 0.735 µM); in [8] (read-out: SP MIC), 0.25 µg/mL (≈ 0.735 µM). Moreover, the MIC in data set [9] (read-out: ML MIC) turned out to be 0.5 µg/mL (≈ 1.47 µM). Also, the “Staph. aureus (PD₅₀) po” value in data set [2] came out at 1.38 mg/kg. Further, the “Staph. aureus (PD₅₀) sc” value in data set [2] was found to be 0.71 mg/kg. Besides, the “E. coli (PD₅₀) po” value in data set [3] turned out to be 8.24 mg/kg. Further, the “E. coli (PD₅₀) sc” value in [3] was 5.39 mg/kg.

Turning to `Cc1cc(-c2c(F)c(F)c3c(=O)c(C(=O)O)cn(C4CC4)c3c2F)cc(C)n1` [B, 1-Cyclopropyl-7-(2,6-dimethyl-4-pyridinyl)-5,6,8-trifluoro-1,4-dihydro-4-oxo-3-quinolinecarboxylic acid], the MIC in data set [1] (anaerobic, read-out: BF MIC) was found to be 0.5 µg/mL (≈ 1.29 µM); in [4] it was 8 µg/mL (≈ 20.6 µM); in data set [5] (read-out: SA MIC), 0.008 µg/mL (≈ 0.0206 µM); in [6] (read-out: EC MIC) it was 0.125 µg/mL (≈ 0.322 µM); in data set [7] (setting [11]), 0.06 µg/mL (≈ 0.155 µM); in data set [8] (read-out: SP MIC), 0.03 µg/mL (≈ 0.0773 µM). Moreover, the MIC in data set [9] (read-out: ML MIC) came to 0.5 µg/mL (≈ 1.29 µM). The “Staph. aureus (PD₅₀) po” value in data set [2] is given as 0.14 mg/kg. In data set [2], the “Staph. aureus (PD₅₀) sc” value amounted to 0.08 mg/kg. In addition, the “activity relative to the prior art compounds” value in data set [2] is given as 9-30 times. Besides, the “E. coli (PD₅₀) po” value in data set [3] is listed as 10.8 mg/kg. Moreover, the “E. coli (PD₅₀) sc” value in data set [3] is reported as 8.9 mg/kg. Moreover, the “activity relative to compound R” value in data set [5] (Staph. aureus) is “four times as active”. In addition, in data set [5] (Staph. aureus), the “activity relative to compounds P and Q” value is “thirty times as active”.

As to `O=C(O)c1cn(C2CC2)c2cc(N3CCNCC3)c(F)cc2c1=O` [Q, 1-Cyclopropyl-6-fluoro-7-(1-piperazinyl)-1,4-dihydro-4-oxo-3-quinolinecarboxylic acid, reference compound], the MIC came to 2 µg/mL (≈ 6.04 µM) in [1] (anaerobic, read-out: BF MIC); 0.125 µg/mL (≈ 0.377 µM) in data set [4]; 0.25 µg/mL (≈ 0.754 µM) in [5] (read-out: SA MIC); 0.004 µg/mL (≈ 0.0121 µM) in data set [6] (read-out: EC MIC); 0.5 µg/mL (≈ 1.51 µM) in data set [7] (setting [11]); 0.25 µg/mL (≈ 0.754 µM) in [8] (read-out: SP MIC). For the same molecule, in data set [9] (read-out: ML MIC), the MIC was found to be 2 µg/mL (≈ 6.04 µM).

As to `Cc1cc(-c2c(F)cc3c(=O)c(C(=O)O)cn(C4CC4)c3c2SCc2ccccc2)cc(C)n1` [Example 7, 1-cyclopropyl-7-(2,6-dimethyl-4-pyridinyl)-6-fluoro-1,4-dihydro-4-oxo-8-(benzylthio)-3-quinolinecarboxylic acid], the MIC in data set [1] (B. fragilis, read-out: MIC) is 64 µg/mL (≈ 135 µM); in data set [5] (Staph. aureus, read-out: MIC), under 0.125 µg/mL; in [6] (E. coli, read-out: MIC), 4 µg/mL (≈ 8.43 µM); in [7] (Strep. faecalis, read-out: MIC), 2 µg/mL (≈ 4.21 µM); in data set [8] (setting [12]), 2 µg/mL (≈ 4.21 µM); in data set [9] (M. luteus, read-out: MIC) it was 64 µg/mL (≈ 135 µM).
